Measurements from publication PMC9848286, “Design, synthesis, and biological investigation of oxadiazolyl, thiadiazolyl, and pyrimidinyl linked antipyrine derivatives as potential non-acidic anti-inflammatory agents” (Journal of Enzyme Inhibition and Medicinal Chemistry, 2023).

Key:
COX-1 = molecular target: T1, COX-1 (Ovis aries, UniProt P05979); assay: In vitro COX-1 inhibition, colorimetric screening assay kit; details: for HillSlope (best-fit value), COX-1 inhibition / LogIC50 (best-fit value), COX-1 inhibition: supplementary dose-response curve
T1 sequence (P05979 25-600): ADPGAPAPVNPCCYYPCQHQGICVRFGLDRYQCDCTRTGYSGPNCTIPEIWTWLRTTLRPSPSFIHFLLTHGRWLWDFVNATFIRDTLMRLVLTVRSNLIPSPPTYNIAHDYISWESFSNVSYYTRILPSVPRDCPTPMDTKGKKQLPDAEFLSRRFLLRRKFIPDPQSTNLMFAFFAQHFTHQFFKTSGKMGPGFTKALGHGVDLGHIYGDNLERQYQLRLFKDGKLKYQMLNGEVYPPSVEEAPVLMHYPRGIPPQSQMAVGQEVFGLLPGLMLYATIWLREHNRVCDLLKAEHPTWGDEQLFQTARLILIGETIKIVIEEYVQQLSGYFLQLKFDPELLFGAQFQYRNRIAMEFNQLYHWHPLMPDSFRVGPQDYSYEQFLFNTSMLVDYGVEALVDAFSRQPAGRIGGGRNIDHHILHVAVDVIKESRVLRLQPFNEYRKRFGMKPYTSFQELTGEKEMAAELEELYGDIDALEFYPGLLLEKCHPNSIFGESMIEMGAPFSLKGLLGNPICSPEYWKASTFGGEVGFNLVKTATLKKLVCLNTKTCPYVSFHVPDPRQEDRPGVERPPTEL
Method: (§1) This assay examined the inhibitory potency of the target structures towardboth COX isoforms via colorimetric screening assay kit (Cayman Chemical, MI, United States) based on the directions provided by the manufacturer. ELISA reader Thermo Scientific Multiskan® EX (Thermo scientific, United States) was used. […] Serial dilutions of CLX, as a reference standard, and tested compounds at concentrations of 1000, 300, 100, 30, 10, 3, 1, and 0.30 nM were used in the assay. IC50 of the tested compounds were determined using three different experiments. The selectivity (SI) of each ompound was measured using the COX-2/COX-1 ratio, which compares the IC50 of COX-2 and COX-1.

COX-2 = molecular target: T2, COX-2 (Homo sapiens, UniProt P35354); assay: In vitro COX-2 inhibition, colorimetric screening assay kit; details: for (SI) in vitro COX-2 selectivity index: COX-1 IC50/COX-2 IC50; for HillSlope (best-fit value), COX-2 inhibition / LogIC50 (best-fit value), COX-2 inhibition: supplementary dose-response curve
T2 sequence (P35354 18-604): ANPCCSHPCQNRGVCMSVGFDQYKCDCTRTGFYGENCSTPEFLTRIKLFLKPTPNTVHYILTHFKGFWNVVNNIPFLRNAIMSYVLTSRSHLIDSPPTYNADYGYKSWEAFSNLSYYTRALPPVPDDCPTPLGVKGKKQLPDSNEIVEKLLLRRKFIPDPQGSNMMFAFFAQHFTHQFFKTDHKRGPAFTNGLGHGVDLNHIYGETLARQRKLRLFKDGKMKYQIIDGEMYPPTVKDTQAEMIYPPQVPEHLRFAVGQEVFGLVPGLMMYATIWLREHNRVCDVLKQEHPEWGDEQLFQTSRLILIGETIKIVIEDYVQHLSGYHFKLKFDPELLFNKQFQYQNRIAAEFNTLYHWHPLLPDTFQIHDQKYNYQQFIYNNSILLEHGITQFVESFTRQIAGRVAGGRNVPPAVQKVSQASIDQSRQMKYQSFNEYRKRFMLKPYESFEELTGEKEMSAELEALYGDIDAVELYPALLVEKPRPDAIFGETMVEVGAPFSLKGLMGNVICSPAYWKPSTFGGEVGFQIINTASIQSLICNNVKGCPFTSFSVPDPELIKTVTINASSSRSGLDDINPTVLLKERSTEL
Method: as §1

SMILES | IC50 (COX-1) | HillSlope (best-fit value), COX-1 inhibition (COX-1) | LogIC50 (best-fit value), COX-1 inhibition (COX-1) | melting point | IC50 (COX-2) | (SI) in vitro COX-2 selectivity index (COX-2) | HillSlope (best-fit value), COX-2 inhibition (COX-2) | LogIC50 (best-fit value), COX-2 inhibition (COX-2)
Cc1ccc(-c2nnc(SCC(=O)Nc3c(C)n(C)n(-c4ccccc4)c3=O)o2)cc1 [4a, N-(1,5-Dimethyl-3-oxo-2-phenyl-2,3-dihydro-1H-pyrazol-4-yl)-2-((5-(p-tolyl)-1,3,4-oxadiazol-2-yl)thio)acetamide] | 0.178 ± 0.00215 µM | -0.3744 | 2.252 Log (nM) | 234 to 236 °C | 0.0869 ± 0.00219 µM | 2.05 | -0.3184 | 1.939 Log (nM)
Cc1c(NC(=O)CSc2nnc(-c3ccc([N+](=O)[O-])cc3)o2)c(=O)n(-c2ccccc2)n1C [4d, N-(1,5-Dimethyl-3-oxo-2-phenyl-2,3-dihydro-1H-pyrazol-4-yl)-2-((5–(4-nitrophenyl)-1,3,4-oxadiazol-2-yl)thio)acetamide] | 0.0508 ± 0.00218 µM | -0.3754 | 1.705 Log (nM) | 214 to 216 °C | 0.0655 ± 0.00223 µM | 0.77 | -0.3340 | 1.817 Log (nM)
Cc1c(NC(=O)CSc2nnc(NC(=O)Nc3ccccc3)s2)c(=O)n(-c2ccccc2)n1C [6a, N-(1,5-Dimethyl-3-oxo-2-phenyl-2,3-dihydro-1H-pyrazol-4-yl)-2-((5–(3-phenylureido)-1,3,4-thiadiazol-2-yl)thio)acetamide] | 0.132 ± 0.00236 µM | -0.3215 | 2.119 Log (nM) | 254 to 256 °C | 0.155 ± 0.00207 µM | 0.85 | -0.3826 | 2.190 Log (nM)
Cc1ccc(NC(=O)Nc2nnc(SCC(=O)Nc3c(C)n(C)n(-c4ccccc4)c3=O)s2)cc1 [6b, N-(1,5-Dimethyl-3-oxo-2-phenyl-2,3-dihydro-1H-pyrazol-4-yl)-2-((5–(3-(p-tolyl)ureido)-1,3,4-thiadiazol-2-yl)thio)acetamide] | 0.0823 ± 0.00228 µM | -0.3398 | 1.915 Log (nM) | 253 to 255 °C | 0.104 ± 0.00225 µM | 0.79 | -0.2866 | 2.016 Log (nM)
COc1ccc(NC(=O)Nc2nnc(SCC(=O)Nc3c(C)n(C)n(-c4ccccc4)c3=O)s2)cc1 [6c, N-(1,5-Dimethyl-3-oxo-2-phenyl-2,3-dihydro-1H-pyrazol-4-yl)-2-((5–(3-(4-methoxyphenyl)ureido)-1,3,4-thiadiazol-2-yl)thio)acetamide] | 0.2821 ± 0.00234 µM | -0.2958 | 2.450 Log (nM) | 250 to 252 °C | 0.0861 ± 0.00226 µM | 3.28 | -0.3558 | 1.935 Log (nM)
Cc1c(NC(=O)CSc2nnc(NC(=O)Nc3ccc(Cl)cc3)s2)c(=O)n(-c2ccccc2)n1C [6d, 2-((5–(3-(4-Chlorophenyl)ureido)-1,3,4-thiadiazol-2-yl)thio)-N-(1,5-dimethyl-3-oxo-2-phenyl-2,3-dihydro-1H-pyrazol-4-yl)acetamide] | 0.106 ± 0.00216 µM | -0.3655 | 2.025 Log (nM) | 248 to 250 °C | 0.169 ± 0.00234 µM | 0.63 | -0.3273 | 2.228 Log (nM)

Second part, the compound after the results:

IC50 (COX-1) | HillSlope (best-fit value), COX-1 inhibition (COX-1) | LogIC50 (best-fit value), COX-1 inhibition (COX-1) | melting point | IC50 (COX-2) | (SI) in vitro COX-2 selectivity index (COX-2) | HillSlope (best-fit value), COX-2 inhibition (COX-2) | LogIC50 (best-fit value), COX-2 inhibition (COX-2) | SMILES
0.139 ± 0.00231 µM | -0.3685 | 2.142 Log (nM) | > 300 °C | 0.0886 ± 0.00219 µM | 1.57 | -0.3794 | 1.948 Log (nM) | Cc1ccc(-c2nc(SCC(=O)Nc3c(C)n(C)n(-c4ccccc4)c3=O)[nH]c(=O)c2C#N)cc1 [8a, 2-((5-Cyano-6-oxo-4-(p-tolyl)-1,6-dihydropyrimidin-2-yl)thio)-N-(1,5-dimethyl-3-oxo-2-phenyl-2,3-dihydro-1H-pyrazol-4-yl)acetamide]
0.209 ± 0.00221 µM | -0.3071 | 2.320 Log (nM) | 239 to 241 °C | 0.12 ± 0.00206 µM | 1.74 | -0.3650 | 2.079 Log (nM) | Cc1c(NC(=O)CSc2nc(-c3ccc(Cl)cc3)c(C#N)c(=O)[nH]2)c(=O)n(-c2ccccc2)n1C [8b, 2-((4–(4-Chlorophenyl)-5-cyano-6-oxo-1,6-dihydropyrimidin-2-yl)thio)-N-(1,5-dimethyl-3-oxo-2-phenyl-2,3-dihydro-1H-pyrazol-4-yl)acetamide]
0.164 ± 0.00239 µM | -0.2705 | 2.214 Log (nM) | 243 to 245 °C | 0.13 ± 0.0021 µM | 1.26 | -0.3953 | 2.113 Log (nM) | Cc1c(NC(=O)CSc2nc(-c3ccc(Br)cc3)c(C#N)c(=O)[nH]2)c(=O)n(-c2ccccc2)n1C [8c, 2-((4–(4-Bromophenyl)-5-cyano-6-oxo-1,6-dihydropyrimidin-2-yl)thio)-N-(1,5-dimethyl-3-oxo-2-phenyl-2,3-dihydro-1H-pyrazol-4-yl)acetamide]
0.0916 ± 0.00215 µM | -0.3099 | 1.962 Log (nM) | 166 to 168 °C | 0.0687 ± 0.00219 µM | 1.33 | -0.3543 | 1.837 Log (nM) | COc1ccc(-c2nc(SCC(=O)Nc3c(C)n(C)n(-c4ccccc4)c3=O)[nH]c(=O)c2C#N)cc1 [8d, 2-((5-Cyano-4–(4-methoxyphenyl)-6-oxo-1,6-dihydropyrimidin-2-yl)thio)-N-(1,5-dimethyl-3-oxo-2-phenyl-2,3-dihydro-1H-pyrazol-4-yl)acetamide]
